Values after ≈ are worked out from the molar mass of the structure shown. Peptide text beside a SMILES is read from it.

Four compounds from ChEMBL document CHEMBL1157402, “Solid-phase total synthesis of cyclic decapeptide phakellistatin 12” (2008) can be followed below.

This test has as its system P388. The test is described as follows: Anticancer activity against mouse P388 cells. It is filed as functional. Conditions: read-out: ED50 (the source's name).

`CC[C@H](C)[C@@H]1NC(=O)[C@H](Cc2ccccc2)NC(=O)[C@@H]2CCCN2C(=O)[C@H](Cc2ccccc2)NC(=O)[C@@H]2CCCN2C(=O)[C@H](CCC(N)=O)NC(=O)[C@@H]2CCCN2C(=O)[C@H](Cc2ccccc2)NC1=O` [PHAKELLI STATIN 11] (cyclo(FIFPQPFP)): the EC50 turned out to be 0.2 µg/mL (≈ 0.205 µM).

Turning to `CC[C@H](C)[C@@H]1NC(=O)[C@@H]2CCCN2C(=O)[C@H](Cc2ccccc2)NC(=O)[C@@H]2CCCN2C(=O)[C@H](Cc2ccc(O)cc2)NC(=O)[C@@H]2CCCN2C(=O)[C@H]([C@@H](C)CC)NC1=O` [PHAKELLISTATIN 2] (cyclo(FPIIPYP)), the EC50 came out at 0.34 µg/mL (≈ 0.411 µM).

Consider `CC[C@H](C)[C@@H]1NC(=O)[C@H](C)NC(=O)[C@H](CCSC)NC(=O)[C@H](C)NC(=O)[C@H](CC(N)=O)NC(=O)[C@H](Cc2ccccc2)NC(=O)[C@@H]2CCCN2C1=O` [PHAKELLI STATIN 5] (cyclo(AIPFNAM)), for which the EC50 was found to be 0.23 µg/mL (≈ 0.309 µM).

Take `CC[C@H](C)[C@@H]1NC(=O)[C@@H]2CCCN2C(=O)[C@@H]2CCCN2C(=O)[C@H]([C@@H](C)CC)NC(=O)[C@H](Cc2ccc(O)cc2)NC(=O)[C@@H]2CCCN2C(=O)[C@@H]2CCCN2C(=O)[C@H](CC(C)C)NC(=O)[C@H]([C@@H](C)O)NC(=O)[C@H](Cc2ccccc2)NC1=O` [PHAKELLISTATIN 12] (cyclo(FTLPPYIPPI)): the EC50 came to 2.8 µg/mL (≈ 2.46 µM).
